In patent US10844062B2, “Pyridine derivative inhibiting RAF kinase and vascular endothelial growth factor receptor, method for preparing same, pharmaceutical composition containing same, and use thereof” (SAMJIN PHARMACEUTICAL CO., LTD., priority 2016, dated 2020):

tested on: LS513 KRAS G12V (colon); assay: MTT assay; type: cell-based; details: Homo sapiens, LS-513, 72 h, Table 4; 3 days incubation; read-out: MTT assay IC50 KRAS mutant (Colon) LS513 KRAS G12V
Procedure: MTT assay is frequently used for the purpose of primary screening for the sensitivity of anticancer agents and to examine cytotoxicity. When cancer cells are treated with varying concentrations of any anticancer agent for a predetermined time to induce death of the cells and are then treated with MTT, and when the formation of formazan is measured, the concentration of the anticancer agent, at which about 50% of the cells survive, can be determined. This concentration value is called IC50. IC50 values differ between drugs, and thus can be characteristic of the drugs. Using this method, the effects of anticancer agents against cell proliferation can be quantitatively compared. Thus, in order to measure the cytotoxicity of samples, MTT assay was performed using CellTiter 96 Non-radioactive Cell Proliferation Assay Kit (Promega).
Cells in a cell suspension were counted with a hematocytometer, and then 200 μL of the cell suspension was added to each well of a 96 well plate at a desired concentration (cell amount determined depending on a cell line). After cell seeding, the cells were incubated in a CO2 incubator at 37° C. overnight. After one day of cell stabilization, the cells were treated with desired concentrations of the compounds. The cells were incubated in a CO2 incubator at 37° C. for 3 days, and then the sample was removed, and 200 μL of MTT solution was added to each well. After 2 hours of incubation, the MTT dilution was carefully shaken, and 200 μL of DMSO was added to each well, followed by shaking with a plate shaker for 60 minutes.

SMILES	IC50 [nM]
O=C(Nc1cc(Nc2ncccc2-c2ncnc3[nH]cnc23)ccc1F)c1ccc(Cl)c(C(F)(F)F)c1 [Example 61, 4-Chloro-N-2-Fluoro-5-[3-(9H-Purin-6-Yl)Pyridin-2-Ylamino)Phenyl-3-(Trifluoromethyl)Benzamide]	439
COc1cc(Nc2ncccc2-c2ncnc3[nH]cnc23)ccc1NC(=O)c1cccc(C(F)(F)F)c1 [Example 80, N-2-Methoxy-4-[3-(9H-Purin-6-Yl)Pyridin-2-Ylamino]Phenyl-3-Trifluoromethylbenzamide]	> 10000
O=C(Nc1ccc(F)c(Nc2ncccc2-c2ncnc3[nH]cnc23)c1F)c1ccc(N2CCSCC2)c(C(F)(F)F)c1 [Example 14, N-(3-(3-(9H-purin-6-yl)pyridin-2-ylamino)-2,4-difluorophenyl)-4-thiomorpholino-3-(trifluoromethyl)benzamide]	851
O=C(Nc1cc(Nc2ncccc2-c2ncnc3[nH]cnc23)ccc1F)c1cc(C(F)(F)F)ccc1F [Example 120, N-5-[(3-(9H-purin-6-yl)pyridin-2-yl)amino]-2-fluorophenyl-2-fluoro-5-(trifluoromethyl)benzamide]	3380
O=C(Nc1cc(Nc2ncccc2-c2ncnc3[nH]cnc23)ccc1Cl)c1cccc(C(F)(F)F)c1 [Example 66, N-2-Chloro-5-[3-(9H-Purin-6-Yl)Pyridin-2-Ylamino)Phenyl-3-Trifluoromethylbenzamide]	135
COc1ccc(C(=O)Nc2cc(Nc3ncccc3-c3ncnc4[nH]cnc34)ccc2F)cc1C(F)(F)F [Example 134, N-5-[(3-(9H-purin-6-yl)pyridin-2-yl)amino]-2-fluorophenyl-4-methoxy-3-(trifluoromethyl)benzamide]	72
CC(C)(C#N)c1cccc(C(=O)Nc2cccc(Nc3ncccc3-c3ncnc4[nH]ccc34)c2F)c1 [Example 86, N-(3-(3-(7H-Pyrrolo[2,3-d]Pyrimidin-4-Yl)Pyridin-2-Ylamino)-2-Fluorophenyl)-3-(2-Cyanopopan-2-Yl)Benzamide]	> 10000
O=C(Nc1ccc(F)c(Nc2ncccc2-c2ncnc3[nH]cnc23)c1F)c1cncs1 [Example 8, N-(3-(3-(9H-purin-6-yl)pyridin-2-ylamino)-2,4-difluorophenyl)thiazole-5-carboxamide]	> 10000
O=C(Nc1cccc(C(F)(F)F)c1)Nc1ccc(Nc2ncccc2-c2ncnc3[nH]cnc23)c(F)c1 [Example 75, 1-3-Fluoro-4-[3-(9H-Purin-6-Yl)Pyridin-2-Ylamino]Phenyl-3-(3-Trifluoromethylphenyl)Urea]	> 10000
O=C(Nc1cc(Nc2ncccc2-c2ncnc3[nH]cnc23)ccc1F)c1cccc(C2CC2)c1 [Example 141, N-5-[(3-(9H-purin-6-yl)pyridin-2-yl)amino]-2-fluorophenyl-3-cyclopropylbenzamide]	445
Nc1cccc(C(=O)Nc2ccc(F)c(Nc3ncccc3-c3ncnc4[nH]cnc34)c2F)c1 [Example 54, N-(3-(3-(9H-Purin-6-Yl)Pyridin-2-Ylamino)-2,4-Difluorophenyl)-3-Aminobenzamide]	> 10000
O=C(Nc1cc(Nc2ncccc2-c2ncnc3[nH]cnc23)ccc1F)c1cc(C(F)(F)F)ccn1 [Example 144, N-5-[(3-(9H-purin-6-yl)pyridin-2-yl)amino]-2-fluorophenyl-4-(trifluoromethyl) picolinamide]	444
CC(C)(C#N)c1cccc(C(=O)Nc2cc(Nc3ncccc3-c3ncnc4[nH]cnc34)ccc2F)n1 [Example 119, N-5-[(3-(9H-purin-6-yl)pyridin-2-yl)amino]-2-fluorophenyl-6-(2-cyanopropan-2-yl)picolinamide]	> 10000
O=C(Nc1ccc(F)c(Nc2ncccc2-c2ncnc3[nH]cnc23)c1F)c1ccco1 [Example 6, N-(3-(3-(9H-purin-6-yl)pyridine-2-ylamino)-2,4-difluorophenyl)furan-2-carboxamide]	> 10000
O=C(Nc1ccc(F)c(Nc2ncccc2-c2ncnc3[nH]cnc23)c1F)c1ccccc1C(F)(F)F [Example 26, N-(3-(3-(9H-purin-6-yl)pyridin-2-ylamino)-2,4-difluorophenyl)-2-(trifluoromethyl)benzamide]	> 10000
O=C(Nc1ccc(F)c(Nc2ncccc2-c2ncnc3[nH]cnc23)c1F)c1ccc([N+](=O)[O-])cc1 [Example 52, N-(3-(3-(9H-Purin-6-Yl)Pyridin-2-Ylamino)-2,4-Difluorophenyl)-4-Nitrobenzamide]	> 10000
CC(C)(C#N)c1cc(F)cc(C(=O)Nc2ccc(F)c(Nc3ncccc3-c3ncnc4[nH]cnc34)c2F)c1 [Example 43, N-(3-(3-(9H-Purin-6-Yl)Pyridin-2-Ylamino)-2,4-Difluorophenyl)-3-(2-Cyanopropan-2-Yl)-5-Fluorobenzamide]	402

SMILES	IC50 [nM]
O=C(Nc1cc(Nc2ncccc2-c2ncnc3[nH]cnc23)ccc1F)c1cccc(Cl)c1 [Example 146, N-5-[(3-(9H-purin-6-yl)pyridin-2-yl)amino]-2-fluorophenyl-3-chlorobenzamide]	1700
O=C(Nc1cc(Nc2ncccc2-c2ncnc3[nH]cnc23)ccc1Cl)c1cc(F)cc(C(F)(F)F)c1 [Example 67, N-2-Chloro-5-[3-(9H-Purin-6-Yl)Pyridin-2-Ylamino)Phenyl-3-Fluoro-5-Trifluoromethylbenzamide]	6590
CC(C)(C#N)c1cccc(C(=O)Nc2cc(Nc3ncccc3-c3ncnc4[nH]ccc34)c(F)cc2F)c1 [Example 84, N-(5-(3-(7H-Pyrrolo[2,3-d]Pyrimidin-4-Yl)Pyridin-2-Ylamino)-2,4-Diflurophenyl)-3-(2-Cyanopropan-2-Yl)Benzamide]	118
COc1cc(OC)cc(C(=O)Nc2cc(Nc3ncccc3-c3ncnc4[nH]cnc34)ccc2F)c1 [Example 132, N-5-[(3-(9H-purin-6-yl)pyridin-2-yl)amino]-2-fluorophenyl-3,5-dimethoxybenzamide]	585
O=C(Nc1cc(Nc2ncccc2-c2ncnc3[nH]cnc23)ccc1F)c1ccnc(C(F)(F)F)c1 [Example 151, N-5-[(3-(9H-purin-6-yl)pyridin-2-yl)amino]-2-fluorophenyl-2-(trifluoromethyl)isonicotinamide]	350
O=C(Nc1cc(Nc2ncccc2-c2ncnc3[nH]cnc23)ccc1F)c1cccc(F)c1 [Example 113, N-5-[(3-(9H-Purin-6-Yl)Pyridin-2-Yl)Amino]-2-Fluorophenyl-3-Fluorobenzamide]	1480
O=C(Nc1ccc(F)c(Nc2ncccc2-c2ncnc3[nH]cnc23)c1F)c1ccno1 [Example 7, N-(3-(3-(9H-purin-6-yl)pyridin-2-ylamino)-2,4-difluorophenyl)isoxazole-5-carboxamide]	> 10000
Cc1cccc(C(=O)Nc2cc(Nc3ncccc3-c3ncnc4[nH]cnc34)ccc2F)c1 [Example 145, N-5-[(3-(9H-purin-6-yl)pyridin-2-yl)amino]-2-fluorophenyl-3-methylbenzamide]	1030
O=C(Nc1cc(Nc2ncccc2-c2ncnc3[nH]cnc23)ccc1F)c1cncc(C(F)(F)F)c1 [Example 149, N-5-[(3-(9H-purin-6-yl)pyridin-2-yl)amino]-2-fluorophenyl-5-(trifluoromethyl)nicotinamide]	890
COc1cc(C(=O)Nc2cc(Nc3ncccc3-c3ncnc4[nH]cnc34)ccc2F)c(Br)c(C(C)(C)C#N)c1 [Example 156, N-5-[(3-(9H-purin-6-yl)pyridin-2-yl)amino]-2-fluorophenyl-2-bromo-3-(2-cyanopropan-2-yl)-5-methoxybenzamide]	517
CCN1CCN(Cc2ccc(C(=O)Nc3ccc(F)c(Nc4ncccc4-c4ncnc5[nH]cnc45)c3F)cc2C(F)(F)F)CC1 [Example 3, N-(3-(3-(9H-purin-6-yl)pyridin-2-ylamino)-2,4-difluorophenyl)-4-((4-ethylpiperazin-1-yl)methyl)-3-(trifluoromethyl)benzamide]	4030
O=C(Nc1cc(Nc2ncccc2-c2ncnc3[nH]cnc23)ccc1F)c1ccc(Cl)c(OC(F)(F)F)c1 [Example 147, N-5-[(3-(9H-purin-6-yl)pyridin-2-yl)amino]-2-fluorophenyl-4-chloro-3-(trifluoromethoxy)benzamide]	502
O=C(Nc1ccc(F)c(Nc2ncccc2-c2ncnc3[nH]cnc23)c1F)c1cnccn1 [Example 56, N-(3-(3-(9H-Purin-6-Yl)Pyridin-2-Ylamino)-2,4-Difluorophenyl)Pyrazine-2-Carboxamide]	> 10000
Cc1ccc(NC(=O)c2cccc(C(C)(C)C#N)c2)cc1Nc1ncccc1-c1ncnc2[nH]cnc12 [Example 153, N-3-[(3-(9H-purin-6-yl)pyridin-2-yl)amino]-4-methylphenyl-3-(2-cyanopropan-2-yl)benzamide]	447
O=C(Nc1ccc(F)c(Nc2ncccc2-c2ncnc3[nH]cnc23)c1F)c1ccc(N2CCCC2)c(C(F)(F)F)c1 [Example 19, N-(3-(3-(9H-purin-6-yl)pyridin-2-ylamino)-2,4-difluorophenyl)-4-(pyrrolidin-1-yl)-3-(trifluoromethyl)benzamide]	939
CC(C)(C#N)c1cccc(C(=O)Nc2ccc(F)c(Nc3ncccc3-c3ncnc4[nH]ccc34)c2F)c1 [Example 85, N-(3-(3-(7H-Pyrrolo[2,3-d]Pyrimidin-4-Yl)Pyridin-2-Ylamino)-2,4-Difluorophenyl)-3-(2-Cyanopropan-2-Yl)Benzamide]	676
